Measured values published in BindingDB's records for doi:10.1021/acsmedchemlett.8b00054 (Shandong University, 2018).

What was measured:
[1] = test system: HIV1 RES056 reverse transcriptase K103N/Y181C double mutant (virus infecting MT4 cells); assay: Inhibition of HIV1 RES056 reverse transcriptase K103N/Y181C double mutant infected in human MT4 cells assessed as protection against virus-induced cytotoxicity by MTT assay
[2] = test system: wild-type HIV1 3B reverse transcriptase (virus infecting MT4 cells); assay: Inhibition of wild-type HIV1 3B reverse transcriptase infected in human MT4 cells assessed as protection against virus-induced cytotoxicity by MTT assay
[3] = Inhibition of HIV1 reverse transcriptase E138K mutant infected in human MT4 cells assessed as protection against virus-induced cytotoxicity by MTT assay
[4] = Inhibition of HIV1 reverse transcriptase K103N mutant infected in human MT4 cells assessed as protection against virus-induced cytotoxicity by MTT assay
[5] = Inhibition of HIV1 reverse transcriptase F227L/V106A double mutant infected in human MT4 cells assessed as protection against virus-induced cytotoxicity by MTT assay
[6] = Inhibition of HIV1 reverse transcriptase L100I mutant infected in human MT4 cells assessed as protection against virus-induced cytotoxicity by MTT assay
[7] = Inhibition of HIV1 reverse transcriptase Y181C mutant infected in human MT4 cells assessed as protection against virus-induced cytotoxicity by MTT assay
[8] = Inhibition of HIV1 reverse transcriptase Y188L mutant infected in human MT4 cells assessed as protection against virus-induced cytotoxicity by MTT assay

## Cc1cc(C#N)cc(C)c1Oc1nc(Nc2ccc(C#N)cc2)nc(N)c1Br
[1]
  EC50: 34 nM
[2]
  EC50: 4 nM

## Cc1cc(C#N)cc(C)c1Oc1nc(NC2CCN(Cc3cn(S(C)(=O)=O)cn3)CC2)nc2ccsc12
[3]
  EC50: 13 nM
[1]
  EC50: 2700 nM
[2]
  EC50: 5.7 nM
[4]
  EC50: 4.5 nM

## Cc1cc(C#N)cc(C)c1Oc1nc(NC2CCN(Cc3ccc(S(N)(=O)=O)cc3)CC2)nc2ccn(COCc3ccccc3)c12
[1]
  EC50: 484 nM
[2]
  EC50: 9.5 nM

## Cc1cc(C#N)cc(C)c1Oc1nc(NC2CCN(Cc3ccc(S(C)(=O)=O)cc3)CC2)nc2ccn(COCc3ccccc3)c12
[1]
  EC50: 547 nM
[2]
  EC50: 26 nM

## Cc1cc(C#N)cc(C)c1Oc1nc(NC2CCN(Cc3ccc(C(N)=O)cc3)CC2)nc2ccn(COCc3ccccc3)c12
[1]
  EC50: 567 nM
[2]
  EC50: 36 nM

## Cc1cc(C#N)cc(C)c1Oc1nc(NC2CCN(Cc3ccco3)CC2)nc2ccsc12
[3]
  EC50: 8.8 nM
[1]
  EC50: > 272000 nM
[2]
  EC50: 3.6 nM

## Cc1cc(C#N)cc(C)c1Oc1nc(NC2CCN(Cc3cc(=O)[nH]c(=O)[nH]3)CC2)nc2ccsc12
[3]
  EC50: 7 nM
[1]
  EC50: 8970 nM
[2]
  EC50: 7.2 nM
[4]
  EC50: 6.1 nM

## Cc1cc(C#N)cc(C)c1Oc1nc(NC2CCN(Cc3ccc(S(N)(=O)=O)cc3)CC2)nc2cc[nH]c12
[3]
  EC50: 4 nM
[5]
  EC50: 18 nM
[6]
  EC50: 4.2 nM
[1]
  EC50: 85 nM
[2]
  EC50: 2.4 nM
[7]
  EC50: 4.8 nM
[4]
  EC50: 1 nM
[8]
  EC50: 7.2 nM

## Cc1cc(C#N)cc(C)c1Oc1nc(NC2CCN(Cc3ccc(C(N)=O)cc3)CC2)nc2cc[nH]c12
[1]
  EC50: 113 nM
[2]
  EC50: 5.7 nM

## Cc1cc(C#N)cc(C)c1Oc1nc(NC2CCN(Cc3n[nH]c(=O)n3C)CC2)nc2ccsc12
[1]
  EC50: 17100 nM
[2]
  EC50: 14 nM

## Cc1cc(C#N)cc(C)c1Oc1nc(NC2CCN(Cc3c[nH]cn3)CC2)nc2ccsc12
[3]
  EC50: 12 nM
[1]
  EC50: 1170 nM
[2]
  EC50: 5.5 nM
[4]
  EC50: 6 nM

## Cc1cc(C#N)cc(C)c1Nc1nc(NC2CCN(Cc3ccc(S(N)(=O)=O)cc3)CC2)nc2ccsc12
[1]
  EC50: 31 nM
[2]
  EC50: 1.4 nM

## Cc1cc(C#Cc2cccnc2)cc(C)c1Oc1nc(NC2CCN(Cc3ccc(S(N)(=O)=O)cc3)CC2)nc2ccsc12
[1]
  EC50: 153 nM
[2]
  EC50: 41 nM

## Cc1cc(C#Cc2ccccn2)cc(C)c1Oc1nc(NC2CCN(Cc3ccc(S(N)(=O)=O)cc3)CC2)nc2ccsc12
[1]
  EC50: 888 nM
[2]
  EC50: 9 nM

## Cc1cc(C#N)cc(C)c1Oc1nc(NC2CCN(Cc3ccc(C(N)=O)cc3)CC2)nc2ccn(S(=O)(=O)c3ccccc3)c12
[1]
  EC50: 2290 nM
[2]
  EC50: 17 nM

## Cc1cc(C#N)cc(C)c1Oc1nc(NC2CCN(Cc3ccc(N4CCCC4)cc3)CC2)nc2ccsc12
[1]
  EC50: > 4360 nM
[2]
  EC50: 33 nM

## Cc1cc(C#Cc2ccncc2)cc(C)c1Oc1nc(NC2CCN(Cc3ccc(S(N)(=O)=O)cc3)CC2)nc2ccsc12
[1]
  EC50: 223 nM
[2]
  EC50: 34 nM

## Cc1cc(C#N)cc(C)c1Oc1nc(NC2CCN(Cc3ccc(S(C)(=O)=O)cc3)CC2)nc2ccn(S(=O)(=O)c3ccccc3)c12
[1]
  EC50: 187 nM
[2]
  EC50: 31 nM

## Cc1cc(C#N)cc(C)c1Oc1nc(NC2CCN(Cc3ccc(S(N)(=O)=O)cc3)CC2)nc2ccn(S(=O)(=O)c3ccccc3)c12
[1]
  EC50: 110 nM
[2]
  EC50: 8.9 nM

## Cc1cc(/C=C/C#N)cc(C)c1Nc1nc(NC2CCN(Cc3ccc(S(N)(=O)=O)cc3)CC2)nc2ccsc12
[1]
  EC50: 5 nM
[2]
  EC50: 1.2 nM

## Cc1cc(C#N)cc(C)c1Oc1nc(NC2CCN(Cc3ccc(S(C)(=O)=O)cc3)CC2)nc2cc[nH]c12
[1]
  EC50: 116 nM
[2]
  EC50: 5.9 nM

## Cc1cn([C@H]2C[C@H](N=[N+]=[N-])[C@@H](CO)O2)c(=O)[nH]c1=O [1-((2R,4S,5S)-4-Azido-5-hydroxymethyl-tetrahydro-furan-2-yl)-5-methyl-1H-pyrimidine-2,4-dione]
[1]
  EC50: 17 nM
[2]
  EC50: 7 nM

## Cc1ccnc2c1NC(=O)c1cccnc1N2C1CC1 [BI-RG-587]
[1]
  EC50: > 15000 nM
[2]
  EC50: 124 nM
